We go through 17 molecules from PubChem BioAssay (NCI).

Test systems include CAKI-1 renal; HCT-15 colon; HOP-92 NSCLC; MDA-MB-231 breast; RXF 393 renal; SF-295 CNS; SK-MEL-5 melanoma; SK-OV-3 ovarian; UACC-62 melanoma; LOX IMVI melanoma.
Assay in all cases: growth of human tumour cells (NCI), 48 h

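Test compounds were applied to cells in 96-well plates for 48 hours at 5 doses. Here, GI50 denotes the concentration required for 50% inhibition of growth. TGI is the concentration that stops growth completely.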 Some results are limits rather than exact numbers.

With `O=C(Nc1ccc(Cl)cc1F)c1cc(Cl)ccc1O`, the GI50 in the test with CAKI-1 renal is 0.298 µM; in the test on HCT-15 colon, 0.519 µM; in the test with HOP-92 NSCLC, 0.157 µM; in the test with MDA-MB-231 breast it was 0.554 µM; in the test on RXF 393 renal, 0.437 µM; in the test on SF-295 CNS, 0.99 µM. The GI50 is 0.209 µM in the test on SK-MEL-5 melanoma, 0.576 µM in the test on SK-OV-3 ovarian and 0.279 µM in the test on UACC-62 melanoma. In addition, the TGI in the test with CAKI-1 renal is 2.52 µM; in the test on HOP-92 NSCLC, 0.553 µM; in the test on MDA-MB-231 breast, 3.46 µM; with RXF 393 renal, 4.73 µM; in the test on SF-295 CNS, 2.67 µM; in the test on SK-MEL-5 melanoma, 0.529 µM. For the same molecule, the results for the TGI in the test on SK-OV-3 ovarian and in the test on UACC-62 melanoma were 8.6 µM and 1.11 µM, respectively.
As to `O=[N+]([O-])c1cc([N+](=O)[O-])c(C(Cl)C(Cl)c2ccccc2)cc1C(Cl)C(Cl)c1ccccc1` (stereo not given), the TGI in the test with CAKI-1 renal worked out at 3.25 µM; in the test with HCT-15 colon, 3.12 µM; with HOP-92 NSCLC it was 3.26 µM; in the test with LOX IMVI melanoma, 3.57 µM; in the test with RXF 393 renal, 2.73 µM; in the test on SF-295 CNS it was 5.17 µM. The TGI in the test on SK-MEL-5 melanoma is 3.29 µM; in the test with SK-OV-3 ovarian, 80.1 µM; in the test with UACC-62 melanoma, 3.7 µM.
In the case of `O=C(NCCCCCCNC(=O)NC1OCC(O)C(O)C1O)NC1OCC(O)C(O)C1O` (stereo not given), the TGI with CAKI-1 renal, in the test with HCT-15 colon, in the test on HOP-92 NSCLC, in the test with LOX IMVI melanoma, with RXF 393 renal and in the test on SF-295 CNS was over 100 µM in each case. Further, the TGI with SK-MEL-5 melanoma, in the test on SK-OV-3 ovarian and with UACC-62 melanoma was over 100 µM each time.
Take `CCc1cccc(CC)c1NC(=O)c1ccn2c1CCc1cnc(Nc3ccc(N4CCN(C)CC4)cc3OC)nc1-2`: the GI50 was 0.0413 µM in the test on HCT-15 colon; 1.95 µM in the test on HOP-92 NSCLC; 2.11 µM in the test on MDA-MB-231 breast; 1.58 µM in the test on RXF 393 renal; 1.62 µM in the test with SF-295 CNS; 1.61 µM with SK-MEL-5 melanoma. Besides, the GI50 with SK-OV-3 ovarian is 11.3 µM; in the test on UACC-62 melanoma, 2.08 µM. Further, the TGI in the test with HCT-15 colon was found to be 2.55 µM; in the test with HOP-92 NSCLC it was 9.66 µM; in the test with MDA-MB-231 breast, 8.29 µM; in the test with RXF 393 renal, 3.08 µM; with SF-295 CNS, 3.73 µM; with SK-MEL-5 melanoma, 3.02 µM. Moreover, the TGI in the test with SK-OV-3 ovarian worked out at 23.4 µM; in the test on UACC-62 melanoma, 4.52 µM.
In the case of `COc1ccc(C(=O)c2cc(OC)c(OC)c(OC)c2)cc1/C=C/C(=O)c1ccc2c(c1)OCO2`, the GI50 in the test on CAKI-1 renal was 2.56 µM; in the test on HOP-92 NSCLC, 12 µM; in the test on MDA-MB-231 breast, 2.35 µM; in the test with RXF 393 renal, 1.94 µM; with SF-295 CNS it was 3.43 µM; with SK-OV-3 ovarian, 5.7 µM. The TGI was over 100 µM with CAKI-1 renal; 35.4 µM with HOP-92 NSCLC; 54.3 µM with MDA-MB-231 breast; 4.21 µM with RXF 393 renal; 17.2 µM with SF-295 CNS; 41.1 µM in the test on SK-OV-3 ovarian.
As for `CCOC(=O)NN(C(=O)OCC)C(C(=O)c1ccc(Cl)cc1)=C1NCCN1`, the TGI in the test with CAKI-1 renal, in the test with HOP-92 NSCLC, with LOX IMVI melanoma, in the test on RXF 393 renal, in the test on SF-295 CNS and in the test with SK-MEL-5 melanoma was over 100 µM each time. Besides, the TGI with SK-OV-3 ovarian and with UACC-62 melanoma was over 100 µM in each case.
`CCC[CH2][Ge]([CH2]CCC)([CH2]CCC)[O]C(=O)C(OC(C)=O)c1ccccc1` (stereo not given): the GI50 is 13.7 µM in the test with CAKI-1 renal; 1.73 µM in the test on HCT-15 colon; 0.438 µM in the test on HOP-92 NSCLC; 0.535 µM in the test on LOX IMVI melanoma; 0.102 µM with RXF 393 renal; 4.02 µM in the test with SF-295 CNS. Also, the GI50 was 0.774 µM in the test with SK-MEL-5 melanoma, 12.4 µM in the test on SK-OV-3 ovarian and 1.64 µM in the test with UACC-62 melanoma. Moreover, the TGI turned out to be 47.4 µM with CAKI-1 renal; 14.5 µM in the test with HCT-15 colon; 12.3 µM in the test with HOP-92 NSCLC; 9.14 µM in the test with LOX IMVI melanoma; 1.44 µM in the test with RXF 393 renal; 23.3 µM with SF-295 CNS. In addition, the TGI in the test on SK-MEL-5 melanoma turned out to be 11.6 µM; with SK-OV-3 ovarian it was 55.5 µM; in the test on UACC-62 melanoma, 15.6 µM.
For `CC(=O)OCc1c(C)c2ccccc2n1C(C)=O`, the TGI in the test on CAKI-1 renal was over 100 µM; with HOP-92 NSCLC, over 100 µM; in the test on LOX IMVI melanoma, over 100 µM; in the test on RXF 393 renal it was 75.3 µM; in the test on SF-295 CNS, over 100 µM; with SK-MEL-5 melanoma, over 100 µM. In addition, the TGI with SK-OV-3 ovarian and in the test with UACC-62 melanoma was over 100 µM throughout.
As to `O=C(CC(=O)c1cccc([N+](=O)[O-])c1)C(=O)Nc1nc([N+](=O)[O-])cs1`, the TGI in the test with CAKI-1 renal, in the test with HCT-15 colon, in the test with HOP-92 NSCLC, in the test with LOX IMVI melanoma, with RXF 393 renal and in the test with SF-295 CNS was over 100 µM in each case. Moreover, the TGI with SK-MEL-5 melanoma, in the test with SK-OV-3 ovarian and with UACC-62 melanoma was over 100 µM each time.
On to `N#CC(C(=O)C(=O)Nc1ccc(Cl)c(Cl)c1)c1ccc(Cl)cc1` (stereo not given), for which the TGI is over 100 µM in the test with CAKI-1 renal; over 100 µM in the test on HCT-15 colon; 99.2 µM in the test on HOP-92 NSCLC; 31.1 µM with LOX IMVI melanoma; over 100 µM in the test with RXF 393 renal; over 100 µM in the test on SF-295 CNS. For the same molecule, the TGI in the test on SK-MEL-5 melanoma, in the test on SK-OV-3 ovarian and in the test on UACC-62 melanoma was over 100 µM throughout.
As for `CCCN(CCC)c1ccc(/C=N/NC(=O)c2cccnc2)cc1`, the GI50 in the test with CAKI-1 renal is 30.1 µM; with HCT-15 colon it was 19.8 µM; with HOP-92 NSCLC it was 20.3 µM; with LOX IMVI melanoma, 17.3 µM; in the test on RXF 393 renal, 19.2 µM; in the test with SF-295 CNS, 16.5 µM. Besides, the GI50 was 18.2 µM in the test with SK-MEL-5 melanoma, 30.6 µM in the test on SK-OV-3 ovarian and 34.7 µM in the test on UACC-62 melanoma. The TGI with CAKI-1 renal is over 100 µM; in the test on HCT-15 colon, over 100 µM; in the test with HOP-92 NSCLC it was 64.8 µM; with LOX IMVI melanoma, 58.5 µM; in the test with RXF 393 renal, 42.1 µM; in the test with SF-295 CNS it was 55.6 µM. In addition, the TGI is 42 µM with SK-MEL-5 melanoma, over 100 µM in the test on SK-OV-3 ovarian and over 100 µM with UACC-62 melanoma.
Consider `O=C1CCCC(=O)C1C(=O)c1ccc(C(F)(F)F)cc1[N+](=O)[O-]`, for which the GI50 with CAKI-1 renal, in the test on HCT-15 colon, in the test with MDA-MB-231 breast, in the test with SF-295 CNS, in the test with SK-MEL-5 melanoma and with SK-OV-3 ovarian was over 100 µM throughout. In addition, in the test on UACC-62 melanoma, the GI50 was over 100 µM. Also, the TGI in the test on CAKI-1 renal, with HCT-15 colon, with MDA-MB-231 breast, with SF-295 CNS, in the test with SK-MEL-5 melanoma and in the test with SK-OV-3 ovarian was over 100 µM each time. Further, the TGI in the test with UACC-62 melanoma was over 100 µM.
In the case of `NC(=O)OCC(COc1ccc(Cl)cc1)OC(=O)c1cc([N+](=O)[O-])cc([N+](=O)[O-])c1` (stereo not given), the TGI with CAKI-1 renal was over 100 µM; in the test on HCT-15 colon it was over 100 µM; in the test with HOP-92 NSCLC, over 100 µM; in the test on LOX IMVI melanoma, 34.4 µM; with RXF 393 renal, over 100 µM; with SF-295 CNS, over 100 µM. For the same molecule, the TGI in the test with SK-MEL-5 melanoma, with SK-OV-3 ovarian and with UACC-62 melanoma was over 100 µM in each case.
With `COc1cc(C2C(C(=O)OCc3ccccc3)=C(C)NC(C)=C2C(=O)OCc2ccccc2)cc(OC)c1OC`, the GI50 with CAKI-1 renal was 3.05 µM; in the test on HOP-92 NSCLC, 3.08 µM; in the test with MDA-MB-231 breast it was 2.16 µM; in the test with SF-295 CNS it was 2.86 µM; with SK-OV-3 ovarian, 4.78 µM; in the test on UACC-62 melanoma, 3.62 µM. In addition, the TGI in the test with CAKI-1 renal was over 100 µM; in the test with HOP-92 NSCLC it was 37.9 µM; in the test with MDA-MB-231 breast, over 100 µM; in the test with SF-295 CNS, over 100 µM; in the test on SK-OV-3 ovarian, over 100 µM; with UACC-62 melanoma, over 100 µM.
With `C/C=C/C=C\C(=O)C1c2cccc(O)c2C(=O)c2c(O)cc(C)cc21` (stereo not given), the TGI with CAKI-1 renal came out at 4.34 µM; with HCT-15 colon, 3.6 µM; in the test with HOP-92 NSCLC it was 3.33 µM; in the test on LOX IMVI melanoma, 3.38 µM; in the test with RXF 393 renal it was 2.81 µM; in the test on SF-295 CNS, 2.25 µM. Besides, the TGI was 2.69 µM in the test on SK-MEL-5 melanoma and 3.08 µM with SK-OV-3 ovarian.
In the case of `[O]=[W](=[O])([OH])[OH]`, the GI50 with CAKI-1 renal, with HCT-15 colon, with HOP-92 NSCLC, in the test on MDA-MB-231 breast, with RXF 393 renal and in the test with SF-295 CNS was over 100 µM in each case. The GI50 with SK-MEL-5 melanoma and in the test with UACC-62 melanoma was over 100 µM in each case. The TGI with CAKI-1 renal, in the test on HCT-15 colon, in the test on HOP-92 NSCLC, in the test with MDA-MB-231 breast, in the test on RXF 393 renal and with SF-295 CNS was over 100 µM each time. The TGI in the test on SK-MEL-5 melanoma and in the test on UACC-62 melanoma was over 100 µM in each case.
`CNC(=O)OCc1cc2ccncc2c2c1[nH]c1ccccc12`: the TGI is over 100 µM with CAKI-1 renal; over 100 µM in the test with HCT-15 colon; over 100 µM with HOP-92 NSCLC; over 100 µM in the test with LOX IMVI melanoma; 8.39 µM with RXF 393 renal; over 100 µM in the test on SF-295 CNS. Besides, the TGI with SK-MEL-5 melanoma and with UACC-62 melanoma was over 100 µM each time.
